target: T1, BACE1 (Homo sapiens, UniProt P56817); experiment: Cellular Aβ-lowering assay (Abeta 40 AlphaLISA, HEK293 APP cells); type: cell-based; settings: 18-20 hrs incubation, Aβ 40 in culture supernatant, read-out: BACE1 cell act. Aβ40 IC50
T1 construct: endogenous in cells; host or cells: HEK293 APP cells
Method: Cellular Aβ-Lowering Assay:
The Abeta 40 AlphaLISA Assay can be used. The HEK293 APP cells were seeded in 96 well Microtiter plates in cell culture medium (Iscove's, plus 10% (v/v) fetal bovine serum, penicillin/streptomycin) to about 80% confluency and the compounds were added at a 3× concentration in ⅓ volume of culture medium (final DMSO concentration was kept at 1% v/v). After 18-20 hrs incubation at 37° C. and 5% CO2 in a humidified incubator, the culture supernatants were harvested for the determination of Aβ 40 concentrations using Perkin-Elmer Human Amyloid beta 1-40 (high specificity) Kit (Cat#AL275C).
In a Perkin-Elmer White Optiplate-384 (Cat#6007290), 2 ul culture supernatants were combined with 2 μl of a 10× AlphaLISA Anti-hAβAcceptor beads + Biotinylated Antibody Anti-Aβ 1-40 Mix (50 μg/mL/5 nM). After 1 hour room temperature incubation, 16 μl of a 1.25× preparation of Streptavidin (SA) Donor beads (25 μg/mL) were added and incubated for 30 minutes in the Dark. Light Emission at 615 nm was then recorded using EnVision-Alpha Reader. Levels of Aβ 40 in the culture supernatants were calculated as percentage of maximum signal (cells treated with 1% DMSO without inhibitor). The IC50 values were calculated using the Excel XLfit software.

T1 sequence (P56817 46-501): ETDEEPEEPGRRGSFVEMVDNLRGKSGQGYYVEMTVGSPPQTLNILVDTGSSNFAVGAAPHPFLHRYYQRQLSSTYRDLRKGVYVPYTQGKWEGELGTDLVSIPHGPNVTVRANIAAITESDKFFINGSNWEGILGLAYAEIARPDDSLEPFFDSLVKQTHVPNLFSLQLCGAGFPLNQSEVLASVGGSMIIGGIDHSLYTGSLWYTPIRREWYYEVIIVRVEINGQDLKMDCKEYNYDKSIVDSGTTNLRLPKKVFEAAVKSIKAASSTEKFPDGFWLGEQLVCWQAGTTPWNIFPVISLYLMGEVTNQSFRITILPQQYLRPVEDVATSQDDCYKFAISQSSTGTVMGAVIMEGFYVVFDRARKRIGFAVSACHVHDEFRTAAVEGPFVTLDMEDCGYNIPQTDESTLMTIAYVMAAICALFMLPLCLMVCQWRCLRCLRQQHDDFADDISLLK

Row | IC50 | SMILES
1 | 37 nM | CC1(C)C(N)=N[C@](C)(c2cc(-c3cc(-c4ncc(Cl)cn4)no3)ccc2F)C[S@]1(=O)=NCC(F)(F)F [Example 40, (1R,3R)-5-amino-3-(5-(3-(5-chloropyrimidin-2-yl)isoxazol-5-yl)-2-fluorophenyl)-3,6,6-trimethyl-1-((2,2,2-trifluoroethyl)imino)-3,6-dihydro-2H-1,4-thiazine 1-oxide 2,2,2-trifluoroacetate]
2 | 232 nM | COc1cnc(-c2cc(-c3ccc(F)c([C@]4(C)C[S@](=O)(=NCC(F)(F)F)C(C)(C)C(N)=N4)c3)on2)cn1 [Example 39, (1R,3R)-5-amino-3-(2-fluoro-5-(3-(5-methoxypyrazin-2-yl)isoxazol-5-yl)phenyl)-3,6,6-trimethyl-1-((2,2,2-trifluoroethyl)imino)-3,6-dihydro-2H-1,4-thiazine 1-oxide 2,2,2-trifluoroacetate]
3 | 141 nM | CN=[S@]1(=O)C[C@@](CF)(c2cc(-c3cc(-c4cnc(OC)cn4)no3)ccc2F)N=C(N)C1(C)C [Example 2, (1S,3S)-5-amino-3-(2-fluoro-5-(3-(5-methoxypyrazin-2-yl)isoxazol-5-yl)phenyl)-3-(fluoromethyl)-6,6-dimethyl-1-(methylimino)-3,6-dihydro-2H-1,4-thiazine 1-oxide 2,2,2-trifluoroacetate]
4 | 139 nM | CN=[S@@]1(=O)C[C@@](C)(c2cc(-c3cc(-c4cnc(OC)cn4)no3)ccc2F)N=C(N)C12CCCC2 [Example 27, (6R,8R)-10-amino-8-(2-fluoro-5-(3-(5-methoxypyrazin-2-yl)isoxazol-5-yl)phenyl)-8-methyl-6-(methylimino)-6-thia-9-azaspiro[4.5]dec-9-ene 6-oxide 2,2,2-trifluoroacetate]
5 | 17 nM | CN=[S@@]1(=O)C[C@@](C)(c2cc(-c3cn(-c4ccc(Cl)cn4)nn3)ccc2F)N=C(N)C1(C)C [Example 9, (1R,3R)-5-amino-3-(5-(1-(5-chloropyridin-2-yl)-1H-1,2,3-triazol-4-yl)-2-fluorophenyl)-3,6,6-trimethyl-1-(methylimino)-3,6-dihydro-2H-1,4-thiazine 1-oxide 2,2,2-trifluoroacetate]
6 | > 1000 nM | CN=[S@@]1(=O)C[C@@](C)(c2cc(-c3cc(-c4cnc(O)cn4)no3)ccc2F)N=C(N)C1(C)C [Example 23, (1R,3R)-5-amino-3-(2-fluoro-5-(3-(5-hydroxypyrazin-2-yl)isoxazol-5-yl)phenyl)-3,6,6-trimethyl-1-(methylimino)-3,6-dihydro-2H-1,4-thiazine 1-oxide]
7 | 61 nM | CN=[S@@]1(=O)C[C@@](C)(c2cc(-c3cc(-c4cnc(OCC5CC5)cn4)no3)ccc2F)N=C(N)C1(C)C [Example 22, (1R,3R)-5-amino-3-(5-(3-(5-(cyclopropylmethoxy)pyrazin-2-yl)isoxazol-5-yl)-2-fluorophenyl)-3,6,6-trimethyl-1-(methylimino)-3,6-dihydro-2H-1,4-thiazine 1-oxide]
8 | 89 nM | CN=[S@@]1(=O)C[C@@](CF)(c2cc(-c3cc(-c4ncc(Cl)cn4)no3)ccc2F)N=C(N)C1(C)C [Example 3, (1R,3S)-5-amino-3-(5-(3-(5-chloropyrimidin-2-yl)isoxazol-5-yl)-2-fluorophenyl)-3-(fluoromethyl)-6,6-dimethyl-1-(methylimino)-3,6-dihydro-2H-1,4-thiazine 1-oxide 2,2,2-trifluoroacetate]
9 | 156 nM | CN=[S@@]1(=O)C[C@@](CF)(c2cc(-c3cn(-c4ccc(Cl)cn4)nn3)ccc2F)N=C(N)C1(C)C [Example 16, (1R,3S)-5-amino-3-(5-(1-(5-chloropyridin-2-yl)-1H-1,2,3-triazol-4-yl)-2-fluorophenyl)-3-(fluoromethyl)-6,6-dimethyl-1-(methylimino)-3,6-dihydro-2H-1,4-thiazine 1-oxide 2,2,2-trifluoroacetate]
10 | 344 nM | CN=[S@@]1(=O)C[C@@](CF)(c2cc(-c3cc(-c4ncc(Br)cc4C)no3)ccc2F)N=C(N)C1(C)C [Example 15, (1R,3S)-5-amino-3-(5-(3-(5-bromo-3-methylpyridin-2-yl)isoxazol-5-yl)-2-fluorophenyl)-3-(fluoromethyl)-6,6-dimethyl-1-(methylimino)-3,6-dihydro-2H-1,4-thiazine 1-oxide 2,2,2-trifluoroacetate]
11 | 92 nM | COc1cnc(-c2cc(-c3ccc(F)c([C@]4(C)C[S@](=O)(=NC5CC5)C(C)(C)C(N)=N4)c3)on2)cn1 [Example 33, (1R,3R)-5-amino-1-(cyclopropylimino)-3-(2-fluoro-5-(3-(5-methoxypyrazin-2-yl)isoxazol-5-yl)phenyl)-3,6,6-trimethyl-3,6-dihydro-2H-1,4-thiazine 1-oxide]
12 | 20 nM | CN=[S@@]1(=O)C[C@@](C)(c2cc(-c3cc(-c4ncc(OC)cn4)no3)ccc2F)N=C(N)C12CCCC2 [Example 29, (6R,8R)-10-amino-8-(2-fluoro-5-(3-(5-methoxypyrimidin-2-yl)isoxazol-5-yl)phenyl)-8-methyl-6-(methylimino)-6-thia-9-azaspiro[4.5]dec-9-ene 6-oxide 2,2,2-trifluoroacetate]
13 | 51 nM | CN=[S@]1(=O)C[C@@](C)(c2cc(-c3cc(-c4cnc(OCC(F)F)cn4)no3)ccc2F)N=C(N)C1(C)C [Example 11, (1S,3R)-5-amino-3-(5-(3-(5-(2,2-difluoroethoxy)pyrazin-2-yl)isoxazol-5-yl)-2-fluorophenyl)-3,6,6-trimethyl-1-(methylimino)-3,6-dihydro-2H-1,4-thiazine 1-oxide 2,2,2-trifluoroacetate]
14 | 3 nM | CN=[S@@]1(=O)C[C@@](C)(c2cc(-c3cc(-c4ncc(OC)cn4)no3)ccc2F)N=C(N)C1(C)C [Example 20, (1R,3R)-5-amino-3-(2-fluoro-5-(3-(5-methoxypyrimidin-2-yl)isoxazol-5-yl)phenyl)-3,6,6-trimethyl-1-(methylimino)-3,6-dihydro-2H-1,4-thiazine 1-oxide]
15 | 103 nM | CN=[S@@]1(=O)C[C@@](CF)(c2cc(-c3cn(-c4ccc(C#N)cn4)nn3)ccc2F)N=C(N)C1(C)C [Example 14, 6-(4-(3-((1R,3S)-5-amino-3-(fluoromethyl)-6,6-dimethyl-1-(methylimino)-1-oxido-3,6-dihydro-2H-1,4-thiazin-3-yl)-4-fluorophenyl)-1H-1,2,3-triazol-1-yl)nicotinonitrile 2,2,2-trifluoroacetate]
16 | 104 nM | CN=[S@@]1(=O)C[C@@](C)(c2cc(-c3cc(-c4cnc(OCC(F)F)cn4)no3)ccc2F)N=C(N)C12CCCC2 [Example 30, (6R,8R)-10-amino-8-(5-(3-(5-(2,2-difluoroethoxy)pyrazin-2-yl)isoxazol-5-yl)-2-fluorophenyl)-8-methyl-6-(methylimino)-6-thia-9-azaspiro[4.5]dec-9-ene 6-oxide]
17 | 27 nM | CN=[S@]1(=O)C[C@@](C)(c2cc(-c3cc(-c4ncc(OCC(F)F)cn4)no3)ccc2F)N=C(N)C1(C)C [Example 19, (1S,3R)-3-[5-[3-[5-(2,2-difluoroethoxy)pyrimidin-2-yl]isoxazol-5-yl]-2-fluoro-phenyl]-3,6,6-trimethyl-1-methylimino-1-oxo-2H-1,4-thiazin-5-amine]
18 | 106 nM | CN=[S@]1(=O)C[C@@](CF)(c2cc(-c3cc(-c4ncc(OC)cn4)no3)ccc2F)N=C(N)C1(C)C [Example 13, (1S,3S)-5-amino-3-(2-fluoro-5-(3-(5-methoxypyrimidin-2-yl)isoxazol-5-yl)phenyl)-3-(fluoromethyl)-6,6-dimethyl-1-(methylimino)-3,6-dihydro-2H-1,4-thiazine 1-oxide]
19 | 119 nM | CN=[S@@]1(=O)C[C@@](CF)(c2cc(-c3cc(-c4ncc(OC)cn4)no3)ccc2F)N=C(N)C1(C)C [Example 17, (1R,3S)-3-[2-fluoro-5-[3-(5-methoxypyrimidin-2-yl)isoxazol-5-yl]phenyl]-3-(fluoromethyl)-6,6-dimethyl-1-methylimino-1-oxo-2H-1,4-thiazin-5-amine]
20 | 13 nM | CC1(C)C(N)=N[C@](C)(c2cc(-c3cc(-c4ncc(Cl)cn4)no3)ccc2F)C[S@@]1(=O)=NCC(F)(F)F [Example 38, (1S,3R)-5-amino-3-(5-(3-(5-chloropyrimidin-2-yl)isoxazol-5-yl)-2-fluorophenyl)-3,6,6-trimethyl-1-((2,2,2-trifluoroethyl)imino)-3,6-dihydro-2H-1,4-thiazine 1-oxide 2,2,2-trifluoroacetate]
21 | 13 nM | CN=[S@@]1(=O)C[C@@](C)(c2cc(-c3cc(-c4ncc(OCC(F)F)cn4)no3)ccc2F)N=C(N)C1(C)C [Example 18, (1R,3R)-3-[5-[3-[5-(2,2-difluoroethoxy)pyrimidin-2-yl]isoxazol-5-yl]-2-fluoro-phenyl]-3,6,6-trimethyl-1-methylimino-1-oxo-2H-1,4-thiazin-5-amine]
22 | 13 nM | [2H]C([2H])([2H])N=[S@@]1(=O)C[C@@](C)(c2cc(-c3cc(-c4ncc(OCC(F)(F)C(F)F)cn4)no3)ccc2F)N=C(N)C1(C)C [Example 25, (1R,3R)-3-[2-fluoro-5-[3-[5-(2,2,3,3-tetrafluoropropoxy)pyrimidin-2-yl]isoxazol-5-yl]phenyl]-3,6,6-trimethyl-1-oxo-1-(trideuteriomethylimino)-2H-1,4-thiazin-5-amine 2,2,2-trifluoroacetate]

Source: US10047081B2, “BACE1 inhibitors” (Hoffmann-La Roche Inc., priority 2015, dated 2018)
